The nature of this data set: Simulated Intestinal Fluid (SIF) Stability Assay. Type of data set: in vitro ADME. To be noted: simulated gi fluid, porcine pancreatin, 37° C. Here is the method: Simulated Intestinal Fluid (SIF) Stability Assay
Studies were carried out in simulated intestinal fluid (SIF) to evaluate intestinal stability of the peptide molecules of the instant invention. To prepare the SIF reagent, blank FASSIF was prepared by dissolving 0.348 g NaOH, 3.954 g sodium phosphate monobasic monohydrate and 6.186 g NaCl in a final volume of 1 liter water (final pH=6.5). To this solution, 24 g porcine pancreatin (Sigma catalog P7545) was added and stirred for 30 minutes (final pancreatin concentration is 2.4%). The solution was filtered through a cheese cloth and a No. 1 Whatman filter, and 10 ml aliquots were stored at −70° C. To run the reaction, a 10 ml aliquot was thawed at 37° C., and 125 μl aliquots were removed and mixed with an equal volume of blank FASSIF. The peptide stock solution (10 mM in 100% DMSO) was diluted 75-fold in blank FASSIF. A 50 μl aliquot of the diluted peptide was combined with 125 μl pancreatin (2.4%) and 125 μl blank FASSIF to yield final concentrations of 1% pancreatin and 22 μM peptide. The reactions were incubated at 37° C., and at various time points 50 μl aliquots were removed and added to 200 μl of quench solution containing 50% acetonitrile, 50% methanol, 5% formic acid, and 1 μg/ml internal standard. The quenched samples were centrifuged at 10,000 rpm for 10 minutes, and the supernatants were analyzed by LCMS/MS. The percent remaining at each time point was calculated based on the peak area response ratio of test to compound to internal standard. Half-lives were calculated by fitting to a first-order exponential decay equation using GraphPad. A small sampling of the results of these studies is provided and discussed herein and in the accompanying figures.

Results on seven molecules are retold here after patent US20260217767A1, “NOVEL A4B7 THIOETHER PEPTIDE DIMER ANTAGONISTS” (Protagonist Therapeutics, Inc., priority 2014, published 2026).

Where a SMILES comes first, the peptide text is derived from it. A value given as a limit tells only on which side of the number the result lay.

For the setting “monomers, Table 6”, `CC(C)C[C@@H]1NC(=O)[C@H]([C@@H](C)O)NC(=O)[C@H](CC(=O)O)NC(=O)[C@H](CO)NC(=O)[C@H](CCCNC(=N)N)N(C)C(=O)c2ccccc2CSC(C)(C)[C@@H](C(=O)N[C@@H](Cc2c[nH]c3ccccc23)C(=O)N[C@H](CCC(=O)O)C(=O)N[C@H](CCCCN)C(N)=O)NC1=O` [compound 60] (HELM PEPTIDE1{[meR].S.D.T.L.[Pen].W.[dE].[dK].[am]}|CHEM1{[O=C(c1ccccc1C[*:2])[*:1]]}$PEPTIDE1,CHEM1,1:R1-1:R1|PEPTIDE1,CHEM1,6:R3-1:R2$$$V2.0) yielded a half-life greater than 3 h.

In the case of `CC(C)C[C@@H]1NC(=O)[C@H]([C@@H](C)O)NC(=O)[C@H](CC(=O)O)NC(=O)[C@H](CO)NC(=O)[C@H](CCCNC(=N)N)N(C)C(=O)c2ccccc2CSC(C)(C)[C@@H](C(=O)N[C@@H](Cc2c[nH]c3ccccc23)C(=O)N[C@@H](Cc2ccc(O)cc2)C(=O)N(C)[C@@H](CCCCN)C(N)=O)NC1=O` [compound 63] (HELM PEPTIDE1{[meR].S.D.T.L.[Pen].W.Y.[meK].[am]}|CHEM1{[O=C(c1ccccc1C[*:2])[*:1]]}$PEPTIDE1,CHEM1,1:R1-1:R1|PEPTIDE1,CHEM1,6:R3-1:R2$$$V2.0), the half-life (monomers, Table 6) was greater than 3 h. On to `CCCC[C@@H]1NC(=O)[C@H]([C@@H](C)O)NC(=O)[C@H](CC(=O)O)NC(=O)[C@H](CO)NC(=O)[C@H](CCCNC(=N)N)N(C)C(=O)c2ccccc2CSC(C)(C)[C@@H](C(=O)N[C@@H](Cc2c[nH]c3ccccc23)C(=O)N[C@@H](CCC(=O)O)C(=O)N[C@H](CCCCN)C(N)=O)NC1=O` [compound 64] (HELM PEPTIDE1{[meR].S.D.T.[Nle].[Pen].W.E.[dK].[am]}|CHEM1{[O=C(c1ccccc1C[*:2])[*:1]]}$PEPTIDE1,CHEM1,1:R1-1:R1|PEPTIDE1,CHEM1,6:R3-1:R2$$$V2.0), for which the half-life (monomers, Table 6) was 2.98 h.

As to `CC(C)C[C@@H]1NC(=O)[C@H]([C@@H](C)O)NC(=O)[C@H](CC(=O)O)NC(=O)[C@H](CO)NC(=O)[C@H](CCCNC(=N)N)N(C)C(=O)c2ccccc2CSC(C)(C)[C@@H](C(=O)N[C@@H](Cc2ccccc2)C(=O)N[C@H](CCC(=O)O)C(=O)N[C@H](CCCCN)C(N)=O)NC1=O` [compound 65] (HELM PEPTIDE1{[meR].S.D.T.L.[Pen].F.[dE].[dK].[am]}|CHEM1{[O=C(c1ccccc1C[*:2])[*:1]]}$PEPTIDE1,CHEM1,1:R1-1:R1|PEPTIDE1,CHEM1,6:R3-1:R2$$$V2.0), for the setting “monomers, Table 6”, the half-life is greater than 3 h. Under “dimers, Table 7”, `CC(C)C[C@@H]1NC(=O)[C@H]([C@@H](C)O)NC(=O)[C@H](CC(=O)O)NC(=O)[C@H](CO)NC(=O)[C@H](CCCNC(=N)N)N(C)C(=O)c2ccccc2CSC(C)(C)[C@@H](C(=O)N[C@@H](Cc2c[nH]c3ccccc23)C(=O)N[C@@H](CCC(=O)O)C(=O)N[C@H](CCCCN)C(N)=O)NC1=O` [compound 146] (HELM PEPTIDE1{[meR].S.D.T.L.[Pen].W.E.[dK].[am]}|CHEM1{[O=C(c1ccccc1C[*:2])[*:1]]}$PEPTIDE1,CHEM1,1:R1-1:R1|PEPTIDE1,CHEM1,6:R3-1:R2$$$V2.0) displayed a half-life of less than 0.333 h. As to `CC(C)C[C@@H]1NC(=O)[C@H]([C@@H](C)O)NC(=O)[C@H](CC(=O)O)NC(=O)[C@H](CO)NC(=O)[C@H](CCCNC(=N)N)N(C)C(=O)c2ccccc2CSC(C)(C)[C@@H](C(=O)N[C@@H](Cc2c[nH]c3ccccc23)C(=O)N[C@@H](Cc2ccc(O)cc2)C(=O)N(C)[C@@H](CCCCN)C(N)=O)NC1=O` [compound 153] (HELM PEPTIDE1{[meR].S.D.T.L.[Pen].W.Y.[meK].[am]}|CHEM1{[O=C(c1ccccc1C[*:2])[*:1]]}$PEPTIDE1,CHEM1,1:R1-1:R1|PEPTIDE1,CHEM1,6:R3-1:R2$$$V2.0), the half-life (dimers, Table 7) is greater than 3 h. `CCCC[C@@H]1NC(=O)[C@H]([C@@H](C)O)NC(=O)[C@H](CC(=O)O)NC(=O)[C@H](CO)NC(=O)[C@H](CCCNC(=N)N)N(C)C(=O)c2ccccc2CSC(C)(C)[C@@H](C(=O)N[C@@H](Cc2c[nH]c3ccccc23)C(=O)N[C@@H](CCC(=O)O)C(=O)N[C@H](CCCCN)C(N)=O)NC1=O` [compound 154] (HELM PEPTIDE1{[meR].S.D.T.[Nle].[Pen].W.E.[dK].[am]}|CHEM1{[O=C(c1ccccc1C[*:2])[*:1]]}$PEPTIDE1,CHEM1,1:R1-1:R1|PEPTIDE1,CHEM1,6:R3-1:R2$$$V2.0): the half-life (dimers, Table 7) is less than 0.333 h.
